From the supplement of paper PMC10307832

Assays:
Experiment in all cases: relative viability (nuclei count vs DMSO), 5 days (fraction); higher = more cells survive
AZD6482 + Decitabine = compound: Cc1cc([C@@H](C)Nc2ccccc2C(=O)O)c2nc(N3CCOCC3)cc(=O)n2c1 [AZD6482] + Nc1ncn([C@H]2C[C@H](O)[C@@H](CO)O2)c(=O)n1 [Decitabine] (partner 2 µM)
How it was run: (§1)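 Dosing by pin tool came one day after lung cancer cell lines were seeded in 1536-well plates, using either one drug or a fixed anchor-drug dose plus five library-drug doses (not always all listed) in √10 steps. After 5 days, nuclei were counted on 4× images. Relative viability is treated-well nuclei count divided by vehicle-well nuclei count, and values are medians of duplicate plates.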

[1] = compound: COc1cc2nc(N3CCCN(C)CC3)nc(NC3CCN(Cc4ccccc4)CC3)c2cc1OC + O=C(c1cc(Cc2n[nH]c(=O)c3ccccc23)ccc1F)N1CCN(C(=O)C2CC2)CC1 [Olaparib] (partner 8 µM)
How it was run: as §1

AZD6482 + Linsitinib = compound: Cc1cc([C@@H](C)Nc2ccccc2C(=O)O)c2nc(N3CCOCC3)cc(=O)n2c1 [AZD6482] + C[C@]1(O)C[C@@H](c2nc(-c3ccc4ccc(-c5ccccc5)nc4c3)c3c(N)nccn32)C1 [Linsitinib] (partner 1 µM)
How it was run: as §1

[2] = compound: COc1cc2nc(N3CCCN(C)CC3)nc(NC3CCN(Cc4ccccc4)CC3)c2cc1OC + CCNC(=O)c1noc(-c2cc(C(C)C)c(O)cc2O)c1-c1ccc(CN2CCOCC2)cc1 [Luminespib] (partner 0.01 µM)
How it was run: as §1

Cell Line	relative viability (AZD6482 + Decitabine; first compound 0.08 µM)	relative viability (AZD6482 + Decitabine; first compound 0.253 µM)	relative viability (AZD6482 + Decitabine; first compound 0.8 µM)	relative viability (AZD6482 + Decitabine; first compound 2.53 µM)	relative viability (AZD6482 + Decitabine; first compound 8 µM)	relative viability ([1]; first compound 0.2 µM)	relative viability ([1]; first compound 0.6325 µM)	relative viability ([1]; first compound 2 µM)	relative viability ([1]; first compound 6.325 µM)	relative viability (AZD6482 + Linsitinib; first compound 0.08 µM)	relative viability (AZD6482 + Linsitinib; first compound 0.253 µM)	relative viability (AZD6482 + Linsitinib; first compound 0.8 µM)	relative viability (AZD6482 + Linsitinib; first compound 2.53 µM)	relative viability (AZD6482 + Linsitinib; first compound 8 µM)	relative viability ([2]; first compound 0.2 µM)	relative viability ([2]; first compound 0.6325 µM)	relative viability ([2]; first compound 2 µM)	relative viability ([2]; first compound 6.325 µM)
HCC-827	0.341	0.301	0.342	0.267	0.264	0.753	0.626	0.685	0.622	0.939	0.944	0.926	0.861	0.775	0.627	0.555	0.634	0.612
HOP-62	0.197	0.239	0.229	0.265	0.209	0.393	0.202	0.355	0.537	1.1	0.836	1.12	0.67	0.841	0.907	0.856	0.817	0.952
IA-LM	–	–	–	–	–	0.682	0.75	0.831	0.756	0.861	0.732	0.786	–	0.969	–	–	–	–
LC-2-ad	0.799	0.71	0.811	0.661	0.635	0.778	0.728	0.72	0.701	0.61	0.48	0.605	0.318	0.511	0.961	0.973	1.21	1.06
LCLC-97TM1	0.218	0.204	0.196	–	0.213	0.488	0.312	0.48	0.63	0.189	0.158	0.168	0.134	0.169	0.79	0.73	0.822	0.777
LCLC-103H	0.597	0.682	0.677	0.716	0.519	0.751	0.732	0.802	0.748	0.869	0.73	0.72	0.605	0.572	0.905	1.08	0.976	1.01
LK-2	0.34	0.315	0.288	0.241	0.301	0.778	0.68	0.893	0.867	0.587	0.521	0.791	0.513	0.421	0.188	0.188	0.164	0.186
LOU-NH91	0.753	0.828	0.788	0.661	0.7	0.911	0.918	0.968	0.958	0.782	0.913	0.842	0.598	0.665	0.383	0.295	0.359	0.367
LU99A	0.803	0.858	0.968	0.801	0.775	0.287	0.215	0.249	0.287	0.445	0.44	0.434	0.331	0.361	0.258	0.246	0.225	0.231
